Laboratory results as given in article PMC7044277 (Nature Communications, 2020).
Several values for one entry are separate records, joined by “and”; a condition that tells them apart may be missing. Identical values can stand only once.

Key:
Type in all cases: cell-based
DRD2 F1103.28L = target: T1, DRD2 F1103.28L (Homo sapiens, UniProt P14416, F110L); test: Gαi/o-mediated cAMP inhibition (GloSensor), mutant; conditions: DRD2 F1103.28L (b138 head prints DRD2 F1063.28L)
T1 construct: expressed in transfected cells; host or cells: HEK293T (ATCC CRL-11268)

DRD2 F1103.28A = DRD2 F1103.28A (Homo sapiens, UniProt P14416, F110A); test: β-arrestin2 recruitment (Tango), mutant; design: expressed in transfected cells; host or cells: HEK293T (ATCC CRL-11268)
5HT4 = target: T2, 5HT4 (Homo sapiens, UniProt Q13639); test: β-arrestin2 recruitment (Tango); conditions: Fig_S10n; for β-arrestin2 recruitment response in presence of serotonin (replicate values): +10μM serotonin; for β-arrestin2 recruitment response (dose-response source data, replicate values): drug alone
T2 construct: expressed in transfected cells; host or cells: HTLA cells expressing TEV-fused β-arrestin2

DRD2 (D2 long receptor) = DRD2 (D2 long receptor) (Homo sapiens, UniProt P14416); test: Gαi/o-mediated cAMP inhibition (GloSensor split-luciferase cAMP reporter), HEK293T; conditions: DRD2;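 note: compounds applied 15 min at room temperature, then luciferin plus 400 nM isoproterenol to raise cAMP through endogenous β2-adrenergic receptors, luminescence read 15 min later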
DRD3 = DRD3 (Homo sapiens, UniProt P35462); test: β-arrestin2 recruitment (Tango); conditions: DRD3, Tango
Sequence of DRD3 (P35462 whole entry): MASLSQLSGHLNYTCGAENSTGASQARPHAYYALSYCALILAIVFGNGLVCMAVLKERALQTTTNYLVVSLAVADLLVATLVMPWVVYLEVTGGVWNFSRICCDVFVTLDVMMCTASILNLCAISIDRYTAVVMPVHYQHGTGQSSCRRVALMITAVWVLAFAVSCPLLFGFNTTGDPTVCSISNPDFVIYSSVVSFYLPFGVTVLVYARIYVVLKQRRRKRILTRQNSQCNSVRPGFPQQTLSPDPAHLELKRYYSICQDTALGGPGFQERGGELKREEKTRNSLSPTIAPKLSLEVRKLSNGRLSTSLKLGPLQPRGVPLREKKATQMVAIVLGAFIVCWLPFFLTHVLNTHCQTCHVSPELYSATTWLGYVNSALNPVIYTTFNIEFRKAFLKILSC

Sequence of DRD2 (D2 long receptor) (P14416 whole entry): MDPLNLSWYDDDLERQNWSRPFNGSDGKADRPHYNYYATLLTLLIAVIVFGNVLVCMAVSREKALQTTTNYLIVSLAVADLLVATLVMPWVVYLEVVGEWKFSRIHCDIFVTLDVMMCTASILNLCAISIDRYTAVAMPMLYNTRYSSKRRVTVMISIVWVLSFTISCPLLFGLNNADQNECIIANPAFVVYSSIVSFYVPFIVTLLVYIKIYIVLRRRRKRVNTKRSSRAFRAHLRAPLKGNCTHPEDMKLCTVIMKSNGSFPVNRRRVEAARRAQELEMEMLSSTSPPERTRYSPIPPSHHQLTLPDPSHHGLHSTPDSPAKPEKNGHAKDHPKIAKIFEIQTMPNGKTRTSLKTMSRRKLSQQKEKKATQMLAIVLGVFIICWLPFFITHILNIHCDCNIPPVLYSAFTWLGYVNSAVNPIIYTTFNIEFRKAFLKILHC
T2 sequence (Q13639 whole entry, the tested form may be a part): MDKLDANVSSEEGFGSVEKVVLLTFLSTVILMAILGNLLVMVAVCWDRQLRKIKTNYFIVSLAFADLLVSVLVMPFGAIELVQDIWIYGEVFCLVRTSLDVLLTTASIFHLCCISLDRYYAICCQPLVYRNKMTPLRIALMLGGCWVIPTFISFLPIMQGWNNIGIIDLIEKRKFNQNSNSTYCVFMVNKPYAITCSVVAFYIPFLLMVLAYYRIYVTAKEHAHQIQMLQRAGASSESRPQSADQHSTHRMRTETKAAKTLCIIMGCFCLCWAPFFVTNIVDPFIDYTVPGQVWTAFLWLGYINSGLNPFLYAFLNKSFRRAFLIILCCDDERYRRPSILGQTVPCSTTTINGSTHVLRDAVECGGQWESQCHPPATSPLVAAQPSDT
T1 sequence (P14416 whole entry F110L): as the sequence (P14416 whole entry) above, with F110L counted along it
Sequence of DRD2 F1103.28A (P14416 whole entry F110A): as the sequence (P14416 whole entry) above, with F110A counted along it

## CCOc1cccc2cc([C@H](C)NCC3(O)CCCCC3)oc12 [O4SE6]
DRD2 F1103.28L
  EC50: > 10 µM
DRD2 F1103.28A
  EC50: > 10 µM
5HT4; Log[Drug] -6.52
  β-arrestin2 recruitment response in presence of serotonin (replicate values): 72.8962
  β-arrestin2 recruitment response (dose-response source data, replicate values): 1.101
5HT4; Log[Drug] -7
  β-arrestin2 recruitment response in presence of serotonin (replicate values): 68.214 and 69.7519 and 58.0435 and 78.1719 and 67.5552 and 58.9312 and 58.5479 and 62.6911 and 62.3338
  β-arrestin2 recruitment response (dose-response source data, replicate values): 0.5278 and 0.7799 and 0.9481 and 2.146 and 2.021 and 0.7677 and -0.1447 and -0.08084 and 0.1108
5HT4; Log[Drug] -7.52
  β-arrestin2 recruitment response in presence of serotonin (replicate values): 78.4713 and 70.1922 and 60.1136 and 64.4542 and 62.425 and 65.749 and 65.0234 and 67.6362 and 68.0461
  β-arrestin2 recruitment response (dose-response source data, replicate values): 1.098 and 0.2279 and 1.538 and 2.02 and 1.183 and 1.483 and -0.2732 and 0.4713 and 0.304
5HT4; Log[Drug] -8
  β-arrestin2 recruitment response in presence of serotonin (replicate values): 79.2214 and 70.638 and 63.1387 and 67.7854 and 68.476 and 59.8854 and 62.949 and 70.8028 and 62.3669
  β-arrestin2 recruitment response (dose-response source data, replicate values): 1.665 and 0.2788 and 1.143 and 1.476 and 0.7729 and 1.19 and -0.1116 and -0.1148 and 0.2053
5HT4; Log[Drug] -8.52
  β-arrestin2 recruitment response in presence of serotonin (replicate values): 63.0325 and 66.617 and 68.5815 and 61.4979 and 62.8385 and 69.3531 and 69.1189 and 65.2821 and 54.9164
  β-arrestin2 recruitment response (dose-response source data, replicate values): 2.264 and 0.3266 and 1.143 (2×) and 0.899 and 0.9417 and -0.211 and 0.2724 and 0.6928
5HT4; Log[Drug] -9
  β-arrestin2 recruitment response in presence of serotonin (replicate values): 58.3354 and 69.9419 and 59.2835 and 65.9 and 67.9417 and 62.0583 and 73.9242 and 95.122 and 58.9489
  β-arrestin2 recruitment response (dose-response source data, replicate values): 0.7979 and 0.203 and 1.266 and 0.9417 and 1.353 and 2.815 and 0.5659 and 0.7244 and 0.2029
5HT4; Log[Drug] -9.52
  β-arrestin2 recruitment response in presence of serotonin (replicate values): 62.0248 and 69.3453 and 57.8541 and 56.9479 and 71.0625 and 61.8156 and 76.4214 and 67.9653 and 74.0649
  β-arrestin2 recruitment response (dose-response source data, replicate values): 0.3303 and 1.247 and 2.286 and 1.442 and 0.7292 and 1.103 and 0.01536 and 0.2716 and 0.5247
5HT4; Log[Drug] -10
  β-arrestin2 recruitment response in presence of serotonin (replicate values): 55.5618 and 63.9322 and 63.2088 and 69.7104 and 76.0792 and 67.2 and 78.0601 and 69.8546 and 82.4903
  β-arrestin2 recruitment response (dose-response source data, replicate values): 0.4781 and 0.7712 and 1.0661 and 1.899 and 1.272 and 1.189 and -0.1148 and 0.1124 and 0.5271
5HT4; Log[Drug] -10.52
  β-arrestin2 recruitment response in presence of serotonin (replicate values): 62.9859 and 78.1652 and 74.7819 and 66.7635 and 61.4146 and 52.4937 and 74.1336 and 65.8957 and 89.463
  β-arrestin2 recruitment response (dose-response source data, replicate values): 1.621 and 1.692 and 0.9661 and 0.6417 and 1.106 and 1.144 and 0.4066 and -0.08327 and 0.2078
5HT4; Log[Drug] -11
  β-arrestin2 recruitment response in presence of serotonin (replicate values): 82.0434 and 83.1157 and 82.0887 and 77.05 and 73.7271 and 49.1812 and 80.7368 and 81.7578 and 70.7931
  β-arrestin2 recruitment response (dose-response source data, replicate values): 0.3285 and 0.5731 and 1.621 and 1.898 and 1.603 and 0.8979 and -0.2789 and 0.3428 and 0.1099
5HT4; Log[Drug] -11.52
  β-arrestin2 recruitment response in presence of serotonin (replicate values): 82.4482 and 79.2239 and 74.7068 and 70.1292 and 64.8323 and 73.1583 and 68.2329 and 84.5356 and 79.3843
  β-arrestin2 recruitment response (dose-response source data, replicate values): 0.3061 and 0.7799 and 0.4241 and 1.31 and 1.564 and 0.9802 and 0.3743 and -0.1811 and 0.5651
5HT4; Log[Drug] -12
  β-arrestin2 recruitment response in presence of serotonin (replicate values): 88.7057 and 105.09 and 99.6448 and 69.9375 and 73.7219 and 66.8948 and 92.7613 and 90.5301 and 90.978
  β-arrestin2 recruitment response (dose-response source data, replicate values): 1.557 and 0.8835 and 0.5619 and 0.6979 and 1.198 and 1.239 and 0.08246 and 0.08488 and 0.4382
DRD2 (D2 long receptor); agonist, Gαi/o-mediated cAMP inhibition, read-out: EC50 ± SEM
  EC50: 18.4 nM
DRD2 (D2 long receptor); cAMP inhibition
  G protein agonist activity: selective DRD2 agonist
DRD2 (D2 long receptor); HEK-293T, read-out: Emax relative to quinpirole response, cAMP inhibition
  Emax: 91.9%
DRD3
  β-arrestin2 recruitment agonist activity: no detectable agonist activity
DRD3; read-out: EC50 ± SEM
  EC50: > 10 µM
